Test results from ChEMBL document CHEMBL1201862, “PubChem BioAssay data set” (2004).
Active and inactive are the calls of the source.

Legend:
[1] = A Cell Based Assay for the Identification of Probe candidate Compounds with Anti- Venezuelan Equine Encephalitis virus. [Related pubchem assays: 2409, 2419, 1621, 2238, 2405, 2024, 2065, 2402, 2414, 1635, 1650, 2244 ]; type: functional
Vero [2] = test: cytotoxicity of synthesized analogs in Vero cells, SAR follow-up, cytotoxicity control for West Nile virus antiviral project, cell-based, set II (AID 2402); type: functional; settings: Chlorocebus sabaeus
Vero [3] = test: cytotoxicity of synthesized analogs in Vero 76, SAR follow-up, cytotoxicity control for West Nile virus antiviral project, Vero 76 cells (AID 2414); type: functional; settings: Chlorocebus sabaeus
[4] = growth suppression of beta-catenin-knockout colon cells, dose response, cell-based, HCT116, human colon tumor (AID 1045); type: functional;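 note: HCT116 colon tumor cells with beta catenin knocked out; cells exposed to compound for 60 hours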
INS1 = test: beta cell apoptosis inhibitors, cytokine rescue, dose response, luminescence, retest (AID 449756); type: functional, cell-based; settings: Rattus norvegicus;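 note: cell death triggered by IL-1 beta plus TNF-alpha plus IFN-gamma mixture; protective hits raise ATP signal compared with cytokine alone wells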
[5] = growth suppression of PTEN-null colon cells, dose response, cell-based, HCT116 PTEN knockout (AID 1047); type: functional;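 note: HCT116 colon tumor cells with PTEN knocked out; cells exposed to compound for 60 hours before readout; potency for loss of cell viability measured by luminescence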
[6] = Luminescence Cell-Based Dose Retest to Confirm Inhibitors of Cancer Stem Cells. [Related pubchem assays (depositor defined):AID2717, AID2721]; type: functional; settings: Homo sapiens
Vasopressin V1a receptor = Vasopressin V1a receptor (Homo sapiens, UniProt P37288); test: Counterscreen for Oxytocin Receptor (OXTR) agonists: Fluorescence-based cell-based high throughput dose response assay to identify agonists of the vasopressin 1 receptor (V1R). [Related pubchem assays: 2435 (Primary screen (OXTR agonists in singlicate)), 434991 (Counterscreen (V1R agonists in triplicate)), 2482 (Summary (OXTR agonists)) …; type: functional
Oxytocin receptor = Oxytocin receptor (Homo sapiens, UniProt P30559); test: Fluorescence-based cell-based high throughput dose response assay for agonists of the Oxytocin Receptor (OXTR). [Related pubchem assays: 2435 (Primary screen (OXTR agonists in singlicate)), 434991 (Counterscreen (V1R agonists in triplicate)), 2482 (Summary (OXTR agonists)), 434963 (Confirmation screen (OXTR agonists in triplicate))]; type: functional
Bcl-2-like protein 10 = molecular target: T1, Bcl-2-like protein 10 (Homo sapiens, UniProt Q9HD36); test: Biochemical TR3 FP assay of Bcl-B inhibitor potency, EC50 (AID 1243); type: functional
T1 sequence (Q9HD36 whole entry): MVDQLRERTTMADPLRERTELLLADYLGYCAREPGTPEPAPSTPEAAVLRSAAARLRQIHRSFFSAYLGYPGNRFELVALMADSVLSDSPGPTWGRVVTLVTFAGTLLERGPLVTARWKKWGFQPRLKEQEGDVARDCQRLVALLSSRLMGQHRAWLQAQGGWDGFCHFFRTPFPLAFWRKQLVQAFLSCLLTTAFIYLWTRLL

[7] = HEp-2 cell cytotoxicity, dose response, cytotoxicity control for RSV inhibitor project, HTS (AID 2410); type: functional; settings: human respiratory syncytial virus
[8] = inhibitors of clade B AD8 Env fusion, dose response, cell-based, cherry-pick (AID 652062); type: functional;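 note: luciferase signal from cell-cell fusion driven by HIV-1 clade B AD8 Env; potency is for inhibitors of fusion seen as a drop in luminescence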
[9] = Luminescence-based counterscreen assay for KLF5 inhibitors: dose response cell-based high throughput screening assay to identify cytotoxic compounds using the IEC-6 intestinal epithelial cell line. [Related pubchem assays: 1700 (Primary screen.), 1834 (Confirmation screen.), 1858 (Summary AID.), 1905 (Counterscreen.)]; type: functional
[10] = ZM109 Env clade C HIV-1 fusion inhibitors, dose response, HeLa effector, CEM target cells, luciferase, cherry-pick (AID 652058); type: functional, cell-based
Vero [11] = test: cells; type: functional; settings: Chlorocebus sabaeus
[12] = molecular target: T2, Long-chain-fatty-acid--AMP ligase FadD28 (Mycobacterium tuberculosis, UniProt P9WQ59); test: Fluorescence polarization aasay to screen for inhibitors that compete for the binding of FadD28 to a bisubstrate Measured in Biochemical System Using Plate Reader - 2147-01_Inhibitor_Dose_CherryPick_Activity.; type: functional, Mycobacterium tuberculosis H37Rv
T2 sequence (P9WQ59 whole entry): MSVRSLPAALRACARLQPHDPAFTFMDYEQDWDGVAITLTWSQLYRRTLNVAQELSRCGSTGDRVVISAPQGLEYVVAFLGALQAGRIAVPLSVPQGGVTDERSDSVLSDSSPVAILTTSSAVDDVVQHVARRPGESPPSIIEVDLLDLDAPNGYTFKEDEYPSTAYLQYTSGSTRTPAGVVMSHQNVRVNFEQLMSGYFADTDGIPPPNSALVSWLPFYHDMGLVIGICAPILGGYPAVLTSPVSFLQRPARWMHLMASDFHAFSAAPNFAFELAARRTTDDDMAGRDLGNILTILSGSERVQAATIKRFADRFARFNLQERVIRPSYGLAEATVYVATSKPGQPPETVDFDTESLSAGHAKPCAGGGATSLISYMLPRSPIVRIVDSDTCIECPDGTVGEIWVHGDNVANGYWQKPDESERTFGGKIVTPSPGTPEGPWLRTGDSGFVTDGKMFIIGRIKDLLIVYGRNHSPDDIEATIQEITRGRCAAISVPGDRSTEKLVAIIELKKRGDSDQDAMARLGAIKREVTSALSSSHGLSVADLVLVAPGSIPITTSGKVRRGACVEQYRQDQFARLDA

[13] = off-target signal loss in HeLa-CEM21 co-culture – HeLa F-luc CTL cells, cherry-picked, counter-screen for HIV-1 Env fusion inhibitor project, dose response (AID 652040); type: functional, cell-based;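 note: potency for signal decrease marking cytotoxic or nonspecific inhibition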
[14] = molecular target: Glucose-6-phosphate 1-dehydrogenase (Homo sapiens, UniProt P11413); test: human G6PD enzyme inhibitors, dose response, selectivity assay for P. falciparum G6PD inhibitor project, biochemical, fluorescence (AID 504792); type: functional
[15] = CEM21 lymphoblast cell cytotoxicity, dose response, cytotoxicity control for viral fusion inhibitor project, CellTiter-Glo luminescence, cherry-picked (AID 652042); type: functional, cell-based;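 note: potency for signal decrease meaning cytotoxicity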
[16] = inhibitors of HIV Env-driven cell fusion, dose response, cherry-pick (AID 652057); type: functional, cell-based
[17] = molecular target: T3, Microphthalmia-associated transcription factor (Homo sapiens, UniProt O75030); test: TRPM1 promoter luciferase signal decrease, dose response, MITF inhibitor project, cell-based, SK-MEL-5, cherry-picked, set 3 (AID 493073); type: functional
T3 sequence (O75030 whole entry): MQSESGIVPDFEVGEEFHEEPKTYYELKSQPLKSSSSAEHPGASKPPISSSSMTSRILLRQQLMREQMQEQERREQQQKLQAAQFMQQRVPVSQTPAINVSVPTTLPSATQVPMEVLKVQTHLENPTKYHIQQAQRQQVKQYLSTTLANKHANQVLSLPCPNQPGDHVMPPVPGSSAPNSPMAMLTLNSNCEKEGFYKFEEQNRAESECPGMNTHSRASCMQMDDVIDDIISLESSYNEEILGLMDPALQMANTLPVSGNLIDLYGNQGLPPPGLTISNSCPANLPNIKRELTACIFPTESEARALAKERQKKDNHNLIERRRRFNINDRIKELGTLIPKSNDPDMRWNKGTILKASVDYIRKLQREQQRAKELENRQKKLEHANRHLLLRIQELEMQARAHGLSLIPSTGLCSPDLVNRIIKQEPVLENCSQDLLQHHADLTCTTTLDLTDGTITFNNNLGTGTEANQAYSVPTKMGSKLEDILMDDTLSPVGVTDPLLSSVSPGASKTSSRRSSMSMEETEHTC

Sequence of Vasopressin V1a receptor (P37288 whole entry): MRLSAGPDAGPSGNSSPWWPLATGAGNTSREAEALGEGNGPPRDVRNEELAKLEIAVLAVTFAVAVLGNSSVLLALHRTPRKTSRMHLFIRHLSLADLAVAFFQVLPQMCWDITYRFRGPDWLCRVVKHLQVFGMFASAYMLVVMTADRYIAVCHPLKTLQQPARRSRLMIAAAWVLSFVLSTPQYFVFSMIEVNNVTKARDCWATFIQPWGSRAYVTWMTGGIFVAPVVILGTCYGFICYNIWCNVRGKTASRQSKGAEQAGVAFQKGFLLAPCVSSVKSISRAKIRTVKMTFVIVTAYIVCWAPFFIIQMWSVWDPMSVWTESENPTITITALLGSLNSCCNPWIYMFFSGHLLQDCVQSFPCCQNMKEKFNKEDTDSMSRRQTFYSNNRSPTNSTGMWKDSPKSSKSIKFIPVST
Sequence of Oxytocin receptor (P30559 whole entry): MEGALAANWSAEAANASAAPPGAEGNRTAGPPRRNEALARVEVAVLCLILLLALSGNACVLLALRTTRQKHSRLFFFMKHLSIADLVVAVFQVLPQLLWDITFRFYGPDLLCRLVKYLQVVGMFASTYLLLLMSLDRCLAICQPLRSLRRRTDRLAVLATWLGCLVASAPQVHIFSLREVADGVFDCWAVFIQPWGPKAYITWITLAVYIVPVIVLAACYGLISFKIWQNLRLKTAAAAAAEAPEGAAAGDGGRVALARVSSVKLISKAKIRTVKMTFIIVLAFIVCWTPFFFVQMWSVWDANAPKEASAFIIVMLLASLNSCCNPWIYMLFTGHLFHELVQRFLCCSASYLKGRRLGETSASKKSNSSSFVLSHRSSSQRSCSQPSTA
Sequence of Glucose-6-phosphate 1-dehydrogenase (P11413 whole entry, the tested form may be a part): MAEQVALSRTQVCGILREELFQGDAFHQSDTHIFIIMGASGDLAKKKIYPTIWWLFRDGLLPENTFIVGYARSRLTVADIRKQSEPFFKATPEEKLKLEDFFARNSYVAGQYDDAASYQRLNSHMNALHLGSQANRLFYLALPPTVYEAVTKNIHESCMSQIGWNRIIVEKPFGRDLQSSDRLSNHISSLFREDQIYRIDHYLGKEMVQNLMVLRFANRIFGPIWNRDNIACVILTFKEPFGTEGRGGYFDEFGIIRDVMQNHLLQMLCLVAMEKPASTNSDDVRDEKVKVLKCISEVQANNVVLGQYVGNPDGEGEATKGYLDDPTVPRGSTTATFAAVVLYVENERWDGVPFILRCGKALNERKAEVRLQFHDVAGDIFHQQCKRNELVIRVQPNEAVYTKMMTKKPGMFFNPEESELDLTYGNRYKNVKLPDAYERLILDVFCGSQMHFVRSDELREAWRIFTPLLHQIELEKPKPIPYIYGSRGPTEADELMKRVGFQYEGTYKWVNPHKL

Cc1cccc2c(=O)n(-c3ccccc3)c(SCC(=O)Nc3ccc4c(c3)CCC4)nc12
IC50 [1]: > 133 µM (active)
CC50 (Vero [2]): > 200 µM (active)
CC50 (Vero [3]): > 133 µM (active)

COc1ccc(C2NCCc3c2[nH]c2ccccc32)cc1COc1ccc(F)cc1 (stereo unspecified)
EC50 [4]: 7.05 µM (active)
AC50 (INS1): 6.96 µM (active)
EC50 [5]: 6.19 µM (active)
AC50 [6]: 5.89 µM (active)
EC50 (Vasopressin V1a receptor): 20.8 µM (not active)
EC50 (Oxytocin receptor): 26.7 µM (not active)

Cc1ccc(C)n1-c1ccccc1C(=O)O
EC50 (Bcl-2-like protein 10): 0.62 µM (active)

CC(C)(C)c1ccc(C(=O)Nc2sc3c(c2C(=O)O)CCC3)cc1
CC50 [7]: 6.97 µM (active)
AC50 [8]: 0.786 µM (active)
IC50 [9]: > 39.8 µM (not active)
AC50 [10]: 1.36 µM (active)
CC50 (Vero [11]): > 25 µM (active)
AC50 [12]: > 100 µM (inactive)
AC50 [13]: 4.43 µM (active)
IC50 [14]: > 80 µM (inactive)
AC50 [15]: 66.1 µM (active)
AC50 [16]: 2.21 µM (active)
AC50 [17]: 2.09 µM (active)
